According to US5312816A, “Method of combatting osteoporosis in mammalian subjects, utilizing organic boron compounds” (priority 1993, dated 1994):

Experiments:
Cathepsin D [1] = biological target: T1, Cathepsin D (Mus musculus, UniProt P18242); assay: Mouse hepatic lysosomal cathepsin D activity; assay type: biochemical
T1 construct: azocasein assay pH 5.0
Excerpt: (§1) 1. Cf1 male mouse hepatic 10% homogenates in 0.25M sucrose+0.001MEDTA,pH 7.2.
(§2) Lysosomal Enzymes - free and total [triton X-100].
(§3) 2. Acid Cathepsin D -azocasein-pH 5.0, hydrolytic azo-peptide produce 366 nm.
Cathepsin azo casein activity -

5'-Lipoxygenase = biological target: T2, 5'-Lipoxygenase (Homo sapiens, UniProt P09917); assay: Human leukocyte 5'-lipoxygenase; assay type: cell-based
T2 construct: human leukocyte tissue culture cells; endogenous in cells; host or cells: Human peripheral leukocytes, RPMI-1788
T2 sequence (P09917 1-674): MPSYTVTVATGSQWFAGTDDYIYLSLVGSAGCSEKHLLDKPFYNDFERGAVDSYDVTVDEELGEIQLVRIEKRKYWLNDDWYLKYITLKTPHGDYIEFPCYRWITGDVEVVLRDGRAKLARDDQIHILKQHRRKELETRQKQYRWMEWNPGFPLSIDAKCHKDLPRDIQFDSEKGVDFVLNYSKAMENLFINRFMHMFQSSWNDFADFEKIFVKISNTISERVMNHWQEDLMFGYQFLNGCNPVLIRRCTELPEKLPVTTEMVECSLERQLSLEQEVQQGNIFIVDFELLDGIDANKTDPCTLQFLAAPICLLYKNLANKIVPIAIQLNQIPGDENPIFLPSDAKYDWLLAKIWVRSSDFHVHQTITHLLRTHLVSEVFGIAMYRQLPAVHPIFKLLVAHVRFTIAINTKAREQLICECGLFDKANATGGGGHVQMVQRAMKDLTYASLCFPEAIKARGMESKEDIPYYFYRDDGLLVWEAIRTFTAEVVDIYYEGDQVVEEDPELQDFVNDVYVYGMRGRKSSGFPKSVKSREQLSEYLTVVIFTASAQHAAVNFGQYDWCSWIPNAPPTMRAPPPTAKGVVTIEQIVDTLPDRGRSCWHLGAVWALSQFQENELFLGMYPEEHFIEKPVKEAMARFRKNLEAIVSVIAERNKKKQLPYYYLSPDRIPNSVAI

Cathepsin = assay: Human leukocyte cathepsin; assay type: cell-based; settings: Table XIX; read-out: Human Leukocyte IC50 (head gives no enzyme; beside Cathepsin D)
Excerpt: 5. Human peripheral leukocytes, RPMI-1788
as §3

Hydroxyproline = assay: Serum and urine hydroxyproline levels in vivo; settings: Cf1 male mice, 8 mg/kg/day I.P. 14 days, N=6
Calcium = assay: Serum and urine calcium levels in vivo; settings: Cf1 male mice, 8 mg/kg/day I.P. 14 days, N=6
Phosphorus = assay: Serum and urine inorganic phosphorus levels in vivo; settings: Cf1 male mice, 8 mg/kg/day I.P. 14 days, N=6
Cf1 male mice [2] = assay: Anti-inflammatory screen, Winter's test, 2% carrageenan hind foot; assay type: in vivo; settings: Table XIV; unit inferred; unit assumed
Description: Anti-inflammatory Screen- Cf1 - male mice-Winter's Test 2% carrageenan S.C. plantar surface of hind foot, drugs administered @8 or 10 mg/kg I.P. 2X
Winter, C.A., et al, Proc. Soc.

Cf1 male mice [3] = assay: Writhing reflex, 0.6% acetic acid; assay type: in vivo; settings: Table XIV; unit inferred; unit assumed
Description: Writhing reflex- Cf1 -male mice- 0.6% acetic acid I.P. drugs administered @20 mg/kg/ I.P. 20 min. later - the # of stretches/10 min.
Hendershot, L.C., et al, J.

Acid phosphatase [4] = assay: Mouse hepatic lysosomal acid phosphatase activity; assay type: biochemical; settings: Table XV; mouse hepatic, 60 min incubation
Excerpt: as §1, §2
1. Acid phosphatase -beta glycerol-3-phosphate, pH 5.0, released IP 720 nm.
Acid phosphatase activity -

Aryl sulphatase [5] = assay: Mouse hepatic lysosomal aryl sulphatase activity; assay type: biochemical; settings: Table XV, 60 min incubation
Excerpt: as §1, §2
3. Aryl sulphatase- p-nitrocatechol sulfate, pH
5. 8 p-nitro-catechol product 510 nm.

Trypsin [6] = assay: Mouse hepatic trypsin activity; assay type: biochemical; settings: Table XVI; 60 min incubation; read-out: Mouse Hepatic Trypsin IC50
Excerpt: as §1
1. Trypsin- N-benzoyl-L-arginine ethyl ester pH 8.0, hydrolytic product 253 nm.

Cathepsin D [7] = biological target: T1, Cathepsin D; assay: Mouse macrophage cathepsin D activity; assay type: cell-based; settings: Table XVII; mouse macrophage, 60 min incubation; read-out: Cathepsin D pH 5.0 IC50
Excerpt: (§4) 3. Mouse macrophages J774A.1 BALB/c
as §3

Acid phosphatase [8] = assay: Mouse macrophage acid phosphatase activity; assay type: cell-based; settings: Table XVII; mouse macrophage, 60 min incubation; read-out: Acid Phosphatase IC50
Aryl sulphatase [9] = assay: Mouse macrophage aryl sulphatase activity; assay type: cell-based; settings: Table XVII; mouse macrophage, 60 min incubation; read-out: Aryl Sulphatase IC50
Trypsin [10] = assay: Mouse macrophage trypsin (BAEE) activity; assay type: cell-based; settings: Table XVIII; mouse macrophage, 60 min incubation; read-out: Trypsin BAEE IC50
Elastase = assay: Mouse macrophage elastase activity; assay type: cell-based; settings: Table XVIII; mouse macrophage, 60 min incubation; read-out: Elastase IC50
Description: Elastase- N-succinyl-L-alanyl-L-alanine-p-nitroanilide, pH 8.0, p-nitro anilide 410 nm.

[11] = biological target: Prostaglandin cyclooxygenase; assay: Mouse macrophage prostaglandin cyclooxygenase activity; assay type: cell-based; settings: Table XVIII; mouse macrophage, 60 min incubation; read-out: Prostaglandin Cyclooxygenase IC50
Excerpt: as §4
Prostaglandin synthetase purified beef seminal vesicle ^3 H arachidonic acid (86.2 Ci/mmol), tlc separation.

Cf1 male mice [12] = assay: Hot plate tail flick test; assay type: in vivo; settings: Table XIV; unit not given
Pg. cyclooxygenase = biological target: T3, Pg. cyclooxygenase (Sus scrofa, UniProt A0A287ANF9); assay: Porcine seminal vesicles Pg. cyclooxygenase; assay type: biochemical; settings: Table XVI; 60 min incubation
T3 construct: Porcine Seminal; from tissue; the methods section prints beef seminal vesicle

Commercial Collagenase = assay: Commercial collagenase (type not stated); assay type: biochemical; settings: Table XVI; 60 min incubation
Excerpt: 3. Collagenase I, Clostridium histolyticum, bone, skin, tendon, blood vessel, dentine, GI. substrate: rat collagen, N-[propionate-2-3-^3 H] propionylated measured as dpm released.
4. Collagenase II, Clostridium histolyticum, cartilage collagen.

[13] = read-out: Mouse Hepatic Cathepsin D IC50, Table XIX

T1 sequence (P18242 65-410): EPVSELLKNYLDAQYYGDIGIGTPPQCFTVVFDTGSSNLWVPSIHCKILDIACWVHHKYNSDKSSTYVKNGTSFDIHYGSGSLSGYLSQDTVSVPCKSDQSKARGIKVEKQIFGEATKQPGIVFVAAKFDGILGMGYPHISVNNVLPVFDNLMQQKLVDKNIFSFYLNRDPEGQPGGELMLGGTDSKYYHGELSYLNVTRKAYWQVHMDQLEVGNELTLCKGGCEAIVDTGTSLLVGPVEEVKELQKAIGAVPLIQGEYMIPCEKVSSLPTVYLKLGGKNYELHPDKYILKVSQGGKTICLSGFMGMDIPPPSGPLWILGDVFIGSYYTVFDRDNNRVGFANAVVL
T3 sequence (A0A287ANF9 25-600): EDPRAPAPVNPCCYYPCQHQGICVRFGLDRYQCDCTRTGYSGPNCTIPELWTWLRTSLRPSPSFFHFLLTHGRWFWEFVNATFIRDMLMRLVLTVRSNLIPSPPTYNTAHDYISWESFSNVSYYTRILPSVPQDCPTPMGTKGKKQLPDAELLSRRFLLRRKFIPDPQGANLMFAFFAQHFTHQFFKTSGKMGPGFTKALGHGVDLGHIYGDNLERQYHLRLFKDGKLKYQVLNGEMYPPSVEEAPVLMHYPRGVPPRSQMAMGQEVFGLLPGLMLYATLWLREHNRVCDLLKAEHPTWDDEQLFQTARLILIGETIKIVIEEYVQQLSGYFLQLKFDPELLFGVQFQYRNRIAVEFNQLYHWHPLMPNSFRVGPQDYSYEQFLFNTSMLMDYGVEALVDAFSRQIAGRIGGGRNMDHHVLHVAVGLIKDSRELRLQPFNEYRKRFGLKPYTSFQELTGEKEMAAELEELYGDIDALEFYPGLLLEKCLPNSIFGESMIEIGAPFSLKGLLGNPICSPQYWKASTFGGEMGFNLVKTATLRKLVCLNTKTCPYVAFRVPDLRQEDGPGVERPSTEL

Structure (SMILES): CC(C)[Si](OC[C@H]1O[C@@H](n2ccc(N)nc2=O)C[C@@H]1O[Si](C(C)C)(C(C)C)C(C)C)(C(C)C)C(C)C [Compound 38]
- IC50 (Cathepsin D [1]; [13]): 59.7 µM
- IC50 (5'-Lipoxygenase): 7.72 µM
- IC50 (Cathepsin): 13.9 µM

Structure (SMILES): COC(=O)[BH2-][NH+](C)C [(CH3)2 NHBH2 COOCH3, Dimethylamine-carbomethoxyborane]
- Hydroxyproline serum (Hydroxyproline): 84.4 % Control
- Hydroxyproline urine (Hydroxyproline): 50.5 % Control
- Calcium serum (Calcium): 125.4 % Control
- Calcium urine (Calcium): 80.7 % Control
- Phosphorus serum (Phosphorus): 42.8 % Control
- Phosphorus urine (Phosphorus): 67.8 % Control

Structure (SMILES): CC(C)[Si](OC[C@@H]1CC[C@H](n2ccc(N)[n+]([BH2-]C#N)c2=O)O1)(C(C)C)C(C)C [Compound 42]
- IC50 (Cathepsin D [1]; [13]): 30.6 µM
- IC50 (5'-Lipoxygenase): 6.64 µM
- IC50 (Cathepsin): 7.31 µM

Structure (SMILES): C[N+](C)(C)[BH2-]C(=O)[O-].C[N+](C)(C)[BH2-]C(=O)[O-].C[N+](C)(C)[BH2-]C(=O)[O-].C[N+](C)(C)[BH2-]C(=O)[O-].C[N+](C)(C)[BH2-]C(=O)[O-].C[N+](C)(C)[BH2-]C(=O)[O-].O.O.O.[Cl-].[Fe+3].[Fe+3].[Fe+3].[O-2] [Compound 25]
- Anti-Inflammation Cf1 Mice (Cf1 male mice [2]): 74.2%
- Writhing Reflex Mice (Cf1 male mice [3]): 36.4%
- IC50 (Acid phosphatase [4]): 4.14 µM
- IC50 (Cathepsin D [1]; Table XV, mouse hepatic, 60 min incubation, read-out: Cathepsin D IC50): 8.17 µM
- IC50 (Aryl sulphatase [5]): 2.33 µM
- IC50 (Trypsin [6]): 9.91 µM
- IC50 (Cathepsin D [7]): 3.39 µM
- IC50 (Acid phosphatase [8]): 2.44 µM
- IC50 (Aryl sulphatase [9]): 2.75 µM
- IC50 (Trypsin [10]): 1.81 µM
- IC50 (Elastase): 4.11 µM
- IC50 [11]: 2.08 µM
- Tail Flick Mice (Cf1 male mice [12]): 599
- IC50 (Pg. cyclooxygenase): 4.17 µM
- IC50 (Commercial Collagenase): 475 µM

Structure (SMILES): O=C(O)[BH2-][P+](c1ccccc1)(c1ccccc1)c1ccccc1 [Compound 8, Triphenylphosphine-carboxyborane]
- Hydroxyproline serum (Hydroxyproline): 60.5 % Control
- Hydroxyproline urine (Hydroxyproline): 30.0 % Control
- Calcium urine (Calcium): 83.5 % Control

Structure (SMILES): CC(C)[Si](OC[C@H]1O[C@@H](n2ccc(N)[n+]([BH2-]C#N)c2=O)C[C@@H]1O[Si](C(C)C)(C(C)C)C(C)C)(C(C)C)C(C)C [Compound 40]
- IC50 (Cathepsin D [1]; [13]): 27.2 µM
- IC50 (5'-Lipoxygenase): 3.88 µM
- IC50 (Cathepsin): 6.12 µM
